Reference: patent US11807906B2, “Peroxisome biomarkers in HIV disease progression and peroxisome activating drugs for HIV treatment” (priority 2017, dated 2023)
Entries after “also recorded” stand apart in the source; their conditions may differ.

Columns and labels:
peroxisomal protein PEX7 = test: PEX7 immunoblot in niclosamide-pretreated HIV-infected HeLa CD4+ cells; format: cell-based, human; settings: 48 hrs, relative to DMSO
Experimental: (§1) HeLa CD4+ cells were pretreated with the indicated concentrations of the peroxisome proliferator, niclosamide for 24 hrs or DMSO alone (vehicle control). Cells were then infected with HIV, MOI=0.5) for 48 hrs after which levels of the viral protein p24 and peroxisomal protein were measured by immunoblotting. Actin served as loading control.

HIV = HIV p24 ELISA in niclosamide-pretreated HeLa CD4+ cells; format: cell-based; settings: HeLa CD4+ cells pretreated 24 hrs, HIV MOI=0.5, 48 hrs, vs DMSO, FIG. 17
Experimental: HeLa CD4+ cells were pretreated with the indicated concentrations of the peroxisome proliferator, niclosamide for 24 hrs or DMSO alone (vehicle control). Cells were then infected with HIV, MOI=0.5) for 48 hrs after which levels of the viral protein p24 were measured by ELISA.

[1] = system: niclosamide-treated cells; test: Relative cell viability by ATP levels in cell lysates; format: cell-based; settings: below 1 micromolar, 72 hours, vs DMSO, FIG. 20
Experimental: Cells treated with niclosamide or DMSO were harvested after 72 hours. Relative cell viability was determined by measuring ATP levels in the cell lysates.

HIV p24 protein = test: HIV p24 immunoblot in niclosamide-pretreated HeLa CD4+ cells; format: cell-based; settings: HeLa CD4+ cells pretreated 24 hrs, HIV MOI=0.5, 48 hrs, relative to DMSO, FIG. 18/19
Experimental: as §1

O=C(Nc1ccc([N+](=O)[O-])cc1Cl)c1cc(Cl)ccc1O [niclosamide, 5-chloro-N-(2-chloro-4-nitrophenyl)-2-hydroxybenzamide]
PEX7 protein level by immunoblotting (peroxisomal protein PEX7; FIG. 19): increases expression
PEX7 protein level by immunoblotting (peroxisomal protein PEX7; FIG. 19, listed as Niclosamide): increased expression
HIV replication (levels of viral protein p24 by ELISA) (HIV): potently and significantly inhibits HIV replication
HIV replication (levels of viral protein p24 by ELISA) (HIV; listed as Niclosamide): significantly inhibited HIV replication
cytotoxicity (relative cell viability, ATP levels) [1]: not cytotoxic
HIV p24 protein level by immunoblotting (HIV p24 protein): inhibits expression; also recorded: inhibits HIV replication
HIV p24 protein level by immunoblotting (HIV p24 protein; listed as Niclosamide): inhibited expression; also recorded: inhibited HIV replication
